Source: publication PMC12508063, “Chloroindazole based estrogen receptor β ligands with favorable pharmacokinetics promote functional remyelination and visual recovery” (Scientific Reports, 2025)
Where two headings read alike, the source gives them in different places.

Columns and labels:
[1] = Liver microsome stability (human)
[2] = Hepatocyte stability (mouse)
[3] = tested on: EAE optic nerve gene transcripts; assay: NanoString nCounter Mouse Neuropathology gene expression, optic nerve RNA; type: in vivo
Procedure: RNA Extraction and NanoString nCounter Gene Expression Assay: RNA was isolated from a single optic nerve of normal, EAE+Vehicle, and EAE+K102 mice[28]. The RNA samples were analyzed using the nCounter Mouse Neuropathology panel (NanoString Technologies) (Supplementary Data Set 1). Fold changes were calculated using normalized data for the three groups (Supplementary Data Set 2).
Genes associated with myelination, inflammation, and axon health are altered in EAE optic nerves compared to normal optic nerves. To examine how K102 treatment affects these gene transcripts, RNA from treated optic nerves was analyzed using the NanoString Neuropathology gene expression panel (Fig. 7A, Supplementary Data Set 1). […] Ccr2 is a chemokine receptor involved in recruiting immune cells to sites of inflammation. Cpt1b (carnitine palmitoyltransferase 1B) is an enzyme critical for fatty acid oxidation.
RNA Extraction and NanoString nCounter Gene Expression Assay: RNA was isolated from a single optic nerve as described previously in(9). Optic nerves were isolated from normal, EAE+V, and EAE+K102 mice. RNA isolates were run on the nCounter Mouse Neuropathology panel (NanoString Technologies, Seattle, WA). Normalized data was used to calculate fold change for all three groups.
For nCounter gene expression analysis, normalized counts were used to calculate log2 fold changes. Welch’s t-test (unequal variance t-test) was applied when comparing NM vs. EAE+V and EAE+V vs. EAE+K102, as both sample sizes and variances differed between groups. Significance levels were set as follows: *p < 0.05, **p < 0.01, ***p < 0.001, and ****p < 0.0001. Summary of statistics for Figures is in a table format in the supplementary sections Supplementary TableS7-S12 […]

[4] = Hepatocyte stability (human)
[5] = Liver microsome stability (mouse)
EAE mice = assay: EAE clinical disease score; type: in vivo, C57BL/6J mouse; settings: 5 mg/kg/day SC from peak disease
Procedure: EAE induction and treatment: EAE was induced in 8–10-week-old wild-type C57BL/6J mice using MOG₃₅-₅₅ peptide[11],[14],[23]–[25]. Mice were scored daily using a standard clinical scale (0–5) and tested for their ability to stay on a rotarod. […] At peak disease (18–22 days post-immunization), animals were grouped into EAE+Vehicle, EAE+K102, and EAE+K110.
Fig. 3 Experimental design for treatment effects in EAE. (A) Experimental plan. […] Following emulsion injection, mice were injected with pertussis (PTX). Mice were scored for their clinical EAE score daily. EAE mice (red) show signs of disease starting at days 8–17. At peak disease between the days […], therapeutic treatment started and continued daily until the end of the experiment (D35-45). […] N = 6–8 mice/group. Two-Way unbalanced ANOVA with Dunnett’s multiple comparisons test was performed. […]
EAE induction and treatment: Eight to ten-week-old wild-type C57BL/6J mice were induced with active EAE using MOG35-55 peptide as previously described (1-5). […] Animals were scored daily for clinical EAE scores as follows: 0, unaffected; 1, complete tail limpness; 2, failure to right upon attempt to roll over; 3, partial hind limb paralysis; 4, complete hind limb paralysis; […]. At peak disease 18-22 dpi, mice were scored and separated into 3 groups: EAE+V, EAE+SHK-K102, and EAE+K110. […]

[6] = Oral PK of K102 at 40 mg/kg in female dogs; type: in vivo, beagle dog; settings: female dog, PO 40 mg/kg, mean
[7] = microsomes
CYP2C9 = CYP2C9 (Homo sapiens, UniProt P11712); settings: 10 µM
Sequence of CYP2C9 (P11712 whole entry): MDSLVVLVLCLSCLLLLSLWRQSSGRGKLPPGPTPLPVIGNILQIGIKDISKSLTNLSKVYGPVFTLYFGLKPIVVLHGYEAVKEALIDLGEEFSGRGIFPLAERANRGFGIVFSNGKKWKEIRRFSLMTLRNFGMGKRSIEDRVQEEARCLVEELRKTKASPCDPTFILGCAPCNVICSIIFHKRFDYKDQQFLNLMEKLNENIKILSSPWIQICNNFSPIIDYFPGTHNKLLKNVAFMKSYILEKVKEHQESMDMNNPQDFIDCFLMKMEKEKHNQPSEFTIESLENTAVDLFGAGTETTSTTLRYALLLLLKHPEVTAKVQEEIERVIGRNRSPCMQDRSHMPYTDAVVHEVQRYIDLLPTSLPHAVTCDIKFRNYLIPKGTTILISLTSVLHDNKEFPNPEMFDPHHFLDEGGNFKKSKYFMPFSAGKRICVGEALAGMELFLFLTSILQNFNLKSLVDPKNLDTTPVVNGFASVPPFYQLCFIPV

[8] = hepatocytes
[9] = mouse, in vivo
Procedure: Mice were dosed intravenously at 5 mg/kg, subcutaneously at 10 mg/kg, and orally at 25 mg/kg.
Only values above the LLOQ.(0.3 ng/mL) were plotted.

CYP2C19 = CYP2C19 (Homo sapiens, UniProt P33261); settings: 10 µM
Sequence of CYP2C19 (P33261 whole entry): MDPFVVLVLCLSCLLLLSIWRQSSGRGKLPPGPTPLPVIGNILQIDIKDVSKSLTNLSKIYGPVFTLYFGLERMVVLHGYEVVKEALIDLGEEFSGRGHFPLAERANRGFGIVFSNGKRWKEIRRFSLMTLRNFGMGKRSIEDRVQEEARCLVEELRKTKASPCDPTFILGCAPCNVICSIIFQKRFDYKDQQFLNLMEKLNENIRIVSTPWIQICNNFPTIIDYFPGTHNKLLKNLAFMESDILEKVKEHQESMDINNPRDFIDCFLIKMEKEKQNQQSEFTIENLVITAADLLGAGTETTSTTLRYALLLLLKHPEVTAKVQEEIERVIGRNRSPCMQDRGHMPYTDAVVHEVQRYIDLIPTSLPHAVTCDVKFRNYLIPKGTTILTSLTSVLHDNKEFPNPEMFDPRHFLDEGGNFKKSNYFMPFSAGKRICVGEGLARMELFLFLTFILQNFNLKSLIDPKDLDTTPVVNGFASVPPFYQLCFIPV

CYP3A4 = CYP3A4 (Homo sapiens, UniProt P08684); settings: 10 µM
Sequence of CYP3A4 (P08684 whole entry): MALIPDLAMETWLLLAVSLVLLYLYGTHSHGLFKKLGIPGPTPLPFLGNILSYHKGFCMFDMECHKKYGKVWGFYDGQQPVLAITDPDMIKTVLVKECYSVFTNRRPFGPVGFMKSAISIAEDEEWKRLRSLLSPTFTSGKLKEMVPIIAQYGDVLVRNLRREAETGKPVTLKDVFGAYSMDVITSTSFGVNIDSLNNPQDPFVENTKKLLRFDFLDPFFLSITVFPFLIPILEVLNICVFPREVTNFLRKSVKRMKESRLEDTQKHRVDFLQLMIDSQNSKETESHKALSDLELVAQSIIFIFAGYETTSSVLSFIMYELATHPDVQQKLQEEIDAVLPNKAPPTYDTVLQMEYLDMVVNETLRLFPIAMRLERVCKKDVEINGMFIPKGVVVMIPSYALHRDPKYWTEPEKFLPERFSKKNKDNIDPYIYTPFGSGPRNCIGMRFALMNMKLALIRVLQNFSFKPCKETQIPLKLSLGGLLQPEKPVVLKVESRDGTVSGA

Cc1cc(O)ccc1-n1nc2ccc(O)cc2c1Cl [Compound K102, IndCl-o-Me]
Liver Microsome Stability (Human) % Remaining (30 min) ([1]; 30 min): 78.03% | Liver Microsome Stability (Human) CLint ([1]; human, microsomes): 8.47 µL/min/mg protein | Hepatocyte Stability (Mouse) CLint [2]: 86.57 µL/min/mg protein | Hepatocyte Stability (Mouse) t1/2 ([2]; mouse, hepatocytes): 16.01 min | Ccr2 and Cpt1b transcripts vs vehicle-treated optic nerves ([3]; 2 of 770 genes): significantly altered | Arc and Pvalb transcripts vs vehicle ([3]; optic nerve, EAE): increased | Sox10 and Olig2 transcripts relative to vehicle ([3]; optic nerve, EAE): increase | complement system genes C1qa, C1qb, C1qc, and C3 ([3]; optic nerve, EAE): did not significantly impact | mitochondrial-related genes Pink1, Tfam, Mfn2, Park7, and Sirt2 ([3]; vs untreated EAE optic nerves): significant increase | Hepatocyte Stability (Human) % Remaining (15 min) ([4]; 15 min): 60.05% | Hepatocyte Stability (Human) CLint ([4]; human, hepatocytes): 72.12 µL/min/mg protein | Liver Microsome Stability (Mouse) % Remaining (30 min) ([5]; 30 min): 30.18% | Liver Microsome Stability (Mouse) CLint ([5]; mouse, microsomes): 40.80 µL/min/mg protein | Liver Microsome Stability (Mouse) t1/2 ([5]; mouse, microsomes): 17.12 min | EAE clinical disease (EAE mice): superior attenuation | AUCInf/D [6]: 0.6 kg·ng·h/mL/mg | AUClast [6]: 24.6 ng·h/mL | Cmax [6]: 31.7 ng/mL | Tmax [6]: 15 min

Oc1ccc(-n2nc3ccc(O)cc3c2Cl)c(O)c1 [Compound K110, IndCl-o-OH]
Liver Microsome Stability (Human) CLint [7]: 13.64 µL/min/mg protein | Liver Microsome Stability (Human) % Remaining (30 min) ([7]; 0.5 h): 66.88% | CYP Inhibition Percentage CYP2C9 (CYP2C9): 18.49% | Hepatocyte Stability (Mouse) t1/2 [8]: 6.15 min | Hepatocyte Stability (Mouse) % Remaining (15 min) ([8]; 0.25 h): 19.46% | Cl_obs ([9]; iv, 5 mg/kg): 158 mL/min/kg | Kp AUC0-t (brain/plasma) ([9]; iv, 5 mg/kg): 0.37 | Kp AUClast (brain/plasma) ([9]; iv, 5 mg/kg): 0.37 | Vss_obs ([9]; iv, 5 mg/kg): 2.23 L/kg | AUCinf brain ([9]; po, 25 mg/kg): 354 ng·h/g | AUCinf plasma ([9]; po, 25 mg/kg): 780 ng·h/mL | Brain/Plasma Ratio(%) ([9]; po, 25 mg/kg): 46% | Kp AUC0-t (brain/plasma) ([9]; po, 25 mg/kg): 0.46 | Kp AUClast (brain/plasma) ([9]; po, 25 mg/kg): 0.41 | AUCinf brain ([9]; sc, 10 mg/kg): 303 ng·h/g | AUCinf plasma ([9]; sc, 10 mg/kg): 1403 ng·h/mL | Brain/Plasma Ratio(%) ([9]; sc, 10 mg/kg): 22% | F (Bioavailability) ([9]; sc, 10 mg/kg): 133% | Kp AUC0-t (brain/plasma) ([9]; sc, 10 mg/kg): 0.22 | Kp AUClast (brain/plasma) ([9]; sc, 10 mg/kg): 0.20 | CYP Inhibition Percentage CYP2C19 (CYP2C19): 27.89% | CYP Inhibition Percentage CYP3A4-T (CYP3A4): 45.13%
